Reference: paper PMC5218480 (PLoS ONE, 2017)

Tested on: MV-4-11 cells
Test: Gene expression microarray analysis (Affymetrix PrimeView) and GSEA
Format: cell-based, human
Parameters: RFU PODN (11730768_x_at) / Fold change /veh PODN (11730768_x_at) / RFU LINC00158 (11744669_a_at) / Fold change /veh LINC00158 (11744669_a_at) / RFU DUSP10 (11751237_a_at) / Fold change /veh DUSP10 (11751237_a_at) / RFU ID3 (11757404_x_at) / Fold change /veh ID3 (11757404_x_at) / RFU PLEKHG5 (11737974_s_at) / Fold change /veh PLEKHG5 (11737974_s_at) / RFU LRRC4B (11730491_at) / Fold change /veh LRRC4B (11730491_at) / RFU GIMAP4 (11747438_a_at) / Fold change /veh GIMAP4 (11747438_a_at) / RFU KRT8 (11758183_x_at) / Fold change /veh KRT8 (11758183_x_at) / RFU CNN1 (11734310_a_at) / Fold change /veh CNN1 (11734310_a_at) / RFU VPS37D (11726825_at) / Fold change /veh VPS37D (11726825_at) / RFU C10orf10 (11716522_x_at) / Fold change /veh C10orf10 (11716522_x_at) / RFU KIR2DL2 /// KIR2DL4 /// KIR2DL5A /// KIR2DL5B /// KIR2DS1 /// KIR2DS2 /// KIR2DS3 /// KIR2DS4 /// KIR3DL3 /// KIR3DL3 /// KIR3DS1 (11738374_at) / Fold change /veh KIR2DL2 /// KIR2DL4 /// KIR2DL5A /// KIR2DL5B /// KIR2DS1 /// KIR2DS2 /// KIR2DS3 /// KIR2DS4 /// KIR3DL3 /// KIR3DL3 /// KIR3DS1 (11738374_at) / RFU C1QL1 (11718748_at) / Fold change /veh C1QL1 (11718748_at) / RFU TMPRSS4 (11747572_a_at) / Fold change /veh TMPRSS4 (11747572_a_at) / RFU HAMP (11756126_x_at) / Fold change /veh HAMP (11756126_x_at) / RFU RNFT2 (11725882_a_at) / Fold change /veh RNFT2 (11725882_a_at) / RFU NR4A2 (11747474_a_at) / Fold change /veh NR4A2 (11747474_a_at) / RFU ABCC12 (11746883_a_at) / Fold change /veh ABCC12 (11746883_a_at) / RFU TMEM136 (11760407_x_at) / Fold change /veh TMEM136 (11760407_x_at) / RFU CLDN22 /// WWC2 (11732394_at) / Fold change /veh CLDN22 /// WWC2 (11732394_at) / RFU HLA-DPB1 (11760878_x_at) / Fold change /veh HLA-DPB1 (11760878_x_at) / RFU SPINT1 (11716480_a_at) / Fold change /veh SPINT1 (11716480_a_at) / RFU GAP43 (11754022_s_at) / Fold change /veh GAP43 (11754022_s_at) / RFU A4GNT (11735810_at) / Fold change /veh A4GNT (11735810_at) / RFU PRB3 (11715151_x_at) / Fold change /veh PRB3 (11715151_x_at) / RFU TUBB4B (11761932_at) / Fold change /veh TUBB4B (11761932_at) / RFU CAPN14 (11732068_a_at) / Fold change /veh CAPN14 (11732068_a_at) / RFU TMCC2 (11721928_a_at) / Fold change /veh TMCC2 (11721928_a_at) / RFU IRGQ (11745062_a_at) / Fold change /veh IRGQ (11745062_a_at) / RFU FAM174B (11720279_a_at) / Fold change /veh FAM174B (11720279_a_at) / RFU TMPRSS4 (11748680_a_at) / Fold change /veh TMPRSS4 (11748680_a_at) / RFU FAM212B (11763350_a_at) / Fold change /veh FAM212B (11763350_a_at) / RFU PLEKHG5 (11743358_a_at) / Fold change /veh PLEKHG5 (11743358_a_at) / RFU ZSCAN30 (11745921_a_at) / Fold change /veh ZSCAN30 (11745921_a_at) / RFU CMKLR1 (11741424_a_at) / Fold change /veh CMKLR1 (11741424_a_at) / RFU LOC101060620 /// MAPK8IP1 (11723275_at) / Fold change /veh LOC101060620 /// MAPK8IP1 (11723275_at) / RFU SPTSSB (11747773_x_at) / Fold change /veh SPTSSB (11747773_x_at) / RFU PRSS12 (11739890_at) / Fold change /veh PRSS12 (11739890_at) / RFU BIN1 (11741810_x_at) / Fold change /veh BIN1 (11741810_x_at) / RFU WNT11 (11732464_a_at) / Fold change /veh WNT11 (11732464_a_at) / RFU C10orf10 (11716521_a_at) / Fold change /veh C10orf10 (11716521_a_at) / RFU C5orf56 (11738089_at) / Fold change /veh C5orf56 (11738089_at) / RFU CYB561 (11721691_x_at) / Fold change /veh CYB561 (11721691_x_at) / RFU ANKRD19P (11752326_a_at) / Fold change /veh ANKRD19P (11752326_a_at) / RFU OR2T12 /// OR2T33 /// OR2T8 (11738714_s_at) / Fold change /veh OR2T12 /// OR2T33 /// OR2T8 (11738714_s_at) / RFU VCAN (11748164_a_at) / Fold change /veh VCAN (11748164_a_at) / RFU JSRP1 (11732532_at) / Fold change /veh JSRP1 (11732532_at) / RFU KRTAP10-11 (11738290_x_at) / Fold change /veh KRTAP10-11 (11738290_x_at) / RFU MYO3A (11730013_a_at) / Fold change /veh MYO3A (11730013_a_at) / RFU EBF3 (11725865_a_at) / Fold change /veh EBF3 (11725865_a_at) / RFU CAMK2N1 (11719241_x_at) / Fold change /veh CAMK2N1 (11719241_x_at) / RFU C5orf56 (11738088_a_at) / Fold change /veh C5orf56 (11738088_a_at) / RFU OLFML3 (11715873_a_at) / Fold change /veh OLFML3 (11715873_a_at) / RFU LOC100653217 /// NTM (11731650_a_at) / Fold change /veh LOC100653217 /// NTM (11731650_a_at) / RFU MAPK11 (11762145_a_at) / Fold change /veh MAPK11 (11762145_a_at) / RFU FIZ1 (11724087_x_at) / Fold change /veh FIZ1 (11724087_x_at) / RFU OASL (11726364_x_at) / Fold change /veh OASL (11726364_x_at) / RFU SOX15 (11748057_x_at) / Fold change /veh SOX15 (11748057_x_at) / RFU CD79A (11719716_a_at) / Fold change /veh CD79A (11719716_a_at) / RFU HIST1H1D (11736915_at) / Fold change /veh HIST1H1D (11736915_at) / RFU CASKIN2 (11723855_a_at) / Fold change /veh CASKIN2 (11723855_a_at) / RFU LOC730098 (11760151_x_at) / Fold change /veh LOC730098 (11760151_x_at) / RFU OR4N2 (11742367_at) / Fold change /veh OR4N2 (11742367_at) / RFU PRRT2 (11749266_a_at) / Fold change /veh PRRT2 (11749266_a_at) / RFU SNX32 (11753110_a_at) / Fold change /veh SNX32 (11753110_a_at) / RFU CDHR5 (11726645_a_at) / Fold change /veh CDHR5 (11726645_a_at) / RFU RCAN1 (11760418_a_at) / Fold change /veh RCAN1 (11760418_a_at) / RFU FAM167A (11723789_a_at) / Fold change /veh FAM167A (11723789_a_at) / RFU FAM26E (11764081_at) / Fold change /veh FAM26E (11764081_at) / RFU ISYNA1 (11749810_s_at) / Fold change /veh ISYNA1 (11749810_s_at) / RFU ACY1 (11761880_at) / Fold change /veh ACY1 (11761880_at) / RFU 11764098_at / Fold change /veh 11764098_at / RFU SAMD14 (11745864_x_at) / Fold change /veh SAMD14 (11745864_x_at) / RFU NPB (11741838_a_at) / Fold change /veh NPB (11741838_a_at) / RFU TMPRSS6 (11731388_a_at) / Fold change /veh TMPRSS6 (11731388_a_at) / RFU KRTAP10-2 (11738614_at) / Fold change /veh KRTAP10-2 (11738614_at) / RFU ARHGAP8 /// PRR5-ARHGAP8 (11727945_x_at) / Fold change /veh ARHGAP8 /// PRR5-ARHGAP8 (11727945_x_at) / RFU KRTAP5-7 /// NADSYN1 (11734609_at) / Fold change /veh KRTAP5-7 /// NADSYN1 (11734609_at) / RFU RASL12 (11751679_a_at) / Fold change /veh RASL12 (11751679_a_at) / RFU CDKN2B (11736163_a_at) / Fold change /veh CDKN2B (11736163_a_at) / RFU PRF1 (11729649_at) / Fold change /veh PRF1 (11729649_at) / RFU, ZNF638 /// ZNF638-IT1 / Fold change vs veh, ZNF638 /// ZNF638-IT1 / RFU, PANK3 / Fold change vs veh, PANK3 / RFU, SH3YL1 / Fold change vs veh, SH3YL1 / RFU, ZEB2 / Fold change vs veh, ZEB2 / RFU, NRIP1 / Fold change vs veh, NRIP1 / RFU, PTTG1IP / Fold change vs veh, PTTG1IP / RFU, CAPN2 / Fold change vs veh, CAPN2 / RFU, MED14 / Fold change vs veh, MED14 / RFU, SNORA58 / Fold change vs veh, SNORA58 / RFU, C1orf63 / Fold change vs veh, C1orf63 / RFU, LRRFIP1 / Fold change vs veh, LRRFIP1 / RFU, NDUFAF7 / Fold change vs veh, NDUFAF7 / RFU, SLC12A2 / Fold change vs veh, SLC12A2 / RFU, IBTK / Fold change vs veh, IBTK / RFU, ESF1 / Fold change vs veh, ESF1 / Fold change vs veh, TMEM50B / RFU, TAOK1 / Fold change vs veh, TAOK1 / RFU, ACBD3 / Fold change vs veh, ACBD3 / RFU, TMA16 / Fold change vs veh, TMA16 / RFU, RWDD3 / Fold change vs veh, RWDD3 / RFU, BCAT1 / Fold change vs veh, BCAT1 / RFU, EDEM3 / Fold change vs veh, EDEM3 / RFU, TMEM33 / Fold change vs veh, TMEM33 / RFU, WDR75 / Fold change vs veh, WDR75 / RFU, AHCTF1 / Fold change vs veh, AHCTF1 / RFU, TFRC / Fold change vs veh, TFRC / RFU, ZDHHC17 / Fold change vs veh, ZDHHC17 / RFU, NOM1 / Fold change vs veh, NOM1 / RFU, ARL8B / Fold change vs veh, ARL8B / RFU, ZBTB11 / Fold change vs veh, ZBTB11 / RFU, TAMM41 / Fold change vs veh, TAMM41 / RFU, KIAA1704 /// LOC100996395 / Fold change vs veh, KIAA1704 /// LOC100996395 / RFU, ING1 / Fold change vs veh, ING1 / RFU, TRMT61B / Fold change vs veh, TRMT61B / RFU, FUBP3 / Fold change vs veh, FUBP3 / RFU, TP53 / Fold change vs veh, TP53 / RFU, TNKS2 / Fold change vs veh, TNKS2 / RFU, ZFP14 / Fold change vs veh, ZFP14 / RFU, ACTR2 / Fold change vs veh, ACTR2 / RFU, PPP3R1 / Fold change vs veh, PPP3R1 / RFU, PIK3R1 / Fold change vs veh, PIK3R1 / RFU, HNRNPA1 / Fold change vs veh, HNRNPA1 / RFU, RNF170 / Fold change vs veh, RNF170 / RFU, ZNF28 / Fold change vs veh, ZNF28 / RFU, RNGTT / Fold change vs veh, RNGTT / RFU, OGT / Fold change vs veh, OGT / RFU, BRD1 / Fold change vs veh, BRD1 / RFU, MARS / Fold change vs veh, MARS / RFU, ZNF655 / Fold change vs veh, ZNF655 / RFU, FAHD1 / Fold change vs veh, FAHD1 / RFU, BDP1 / Fold change vs veh, BDP1 / RFU, LRRCC1 / Fold change vs veh, LRRCC1 / RFU, ARID1A / Fold change vs veh, ARID1A / RFU, ZNF146 / Fold change vs veh, ZNF146 / RFU, ZNF330 / Fold change vs veh, ZNF330 / RFU, GPN3 / Fold change vs veh, GPN3 / RFU, C9orf123 / Fold change vs veh, C9orf123 / RFU, N4BP2L2 / Fold change vs veh, N4BP2L2 / RFU, ARFIP1 / Fold change vs veh, ARFIP1 / RFU, FAM179B / Fold change vs veh, FAM179B / RFU, BCL10 / Fold change vs veh, BCL10 / RFU, UHRF1BP1L / Fold change vs veh, UHRF1BP1L / RFU, BET1 / Fold change vs veh, BET1 / RFU, CNOT2 / Fold change vs veh, CNOT2 / RFU, ZNF268 / Fold change vs veh, ZNF268 / Fold change vs veh, ZNF507 / RFU, DGCR2 / Fold change vs veh, DGCR2 / RFU, WDSUB1 / Fold change vs veh, WDSUB1 / Fold change vs veh, HSP90B1 /// MIR3652 / RFU, ADSS / Fold change vs veh, ADSS / RFU, GK / Fold change vs veh, GK / RFU, ZNF148 / Fold change vs veh, ZNF148 / RFU, TAF9 / Fold change vs veh, TAF9 / RFU, SLC1A5 / Fold change vs veh, SLC1A5 / RFU, SLMO2 / Fold change vs veh, SLMO2 / RFU, ABCC4 / Fold change vs veh, ABCC4 / RFU, LOC101060439 /// RAP1B / Fold change vs veh, LOC101060439 /// RAP1B / RFU, RFX7 / Fold change vs veh, RFX7 / RFU, GTPBP10 / Fold change vs veh, GTPBP10 / RFU, CNEP1R1 / Fold change vs veh, CNEP1R1 / RFU, BIVM-ERCC5 /// ERCC5 / Fold change vs veh, BIVM-ERCC5 /// ERCC5 / RFU, ILF3 / Fold change vs veh, ILF3 / RFU 11762660_at / Fold change /veh 11762660_at / RFU VCAN (11757783_s_at) / Fold change /veh VCAN (11757783_s_at) / RFU DDX43 (11728927_at) / Fold change /veh DDX43 (11728927_at) / RFU KRT8 (11758188_x_at) / Fold change /veh KRT8 (11758188_x_at) / RFU NKD1 (11759106_at) / Fold change /veh NKD1 (11759106_at) / RFU SRD5A1 (11742802_a_at) / Fold change /veh SRD5A1 (11742802_a_at) / RFU TPSAB1 /// TPSB2 (11721975_s_at) / Fold change /veh TPSAB1 /// TPSB2 (11721975_s_at) / RFU GSTM3 (11746129_a_at) / Fold change /veh GSTM3 (11746129_a_at) / RFU IL23R (11737362_x_at) / Fold change /veh IL23R (11737362_x_at) / RFU TMEM51 (11727254_a_at) / Fold change /veh TMEM51 (11727254_a_at) / RFU PIWIL2 (11732686_x_at) / Fold change /veh PIWIL2 (11732686_x_at) / RFU ORM1 (11744905_x_at) / Fold change /veh ORM1 (11744905_x_at) / RFU CCDC152 (11743942_at) / Fold change /veh CCDC152 (11743942_at) / RFU ECM1 (11717891_a_at) / Fold change /veh ECM1 (11717891_a_at) / RFU IL23R (11748794_a_at) / Fold change /veh IL23R (11748794_a_at) / RFU TNFAIP8L3 (11732012_x_at) / Fold change /veh TNFAIP8L3 (11732012_x_at) / RFU MBOAT4 (11741988_at) / Fold change /veh MBOAT4 (11741988_at) / RFU 11764193_at / Fold change /veh 11764193_at / RFU TMEM53 (11763286_at) / Fold change /veh TMEM53 (11763286_at) / RFU MAGEB2 (11727129_at) / Fold change /veh MAGEB2 (11727129_at) / RFU TMEM200A (11744735_a_at) / Fold change /veh TMEM200A (11744735_a_at) / RFU CCDC152 (11751479_a_at) / Fold change /veh CCDC152 (11751479_a_at) / RFU FAM211A (11726209_a_at) / Fold change /veh FAM211A (11726209_a_at) / RFU RGS16 (11746705_a_at) / Fold change /veh RGS16 (11746705_a_at) / RFU VCAN (11755009_s_at) / Fold change /veh VCAN (11755009_s_at) / RFU RHOB (11743442_s_at) / Fold change /veh RHOB (11743442_s_at) / RFU RGS16 (11720943_a_at) / Fold change /veh RGS16 (11720943_a_at) / RFU RGS16 (11720944_at) / Fold change /veh RGS16 (11720944_at) / RFU, VPS4B / Fold change vs veh, VPS4B / RFU, CREB1 / Fold change vs veh, CREB1 / RFU, DNAJC13 / Fold change vs veh, DNAJC13 / RFU, GNAQ / Fold change vs veh, GNAQ / RFU, CDK5R1 / Fold change vs veh, CDK5R1 / RFU, ZRANB3 / Fold change vs veh, ZRANB3 / RFU, CUL4A / Fold change vs veh, CUL4A / RFU, CCNY / Fold change vs veh, CCNY / RFU, UFL1 / Fold change vs veh, UFL1 / RFU, COG3 / Fold change vs veh, COG3 / RFU, DIAPH2 / Fold change vs veh, DIAPH2 / RFU, SKA2 / Fold change vs veh, SKA2 / RFU, AFF3 / Fold change vs veh, AFF3 / RFU, LMF1 / Fold change vs veh, LMF1 / RFU, IPO11 / Fold change vs veh, IPO11 / RFU, DFFB / Fold change vs veh, DFFB / RFU, FOXP1 / Fold change vs veh, FOXP1 / RFU, CARD8 / Fold change vs veh, CARD8 / RFU, STRN3 / Fold change vs veh, STRN3 / RFU, ADK / Fold change vs veh, ADK / RFU, RASSF2 / Fold change vs veh, RASSF2 / RFU, WIPF1 / Fold change vs veh, WIPF1 / RFU, LARP1B / Fold change vs veh, LARP1B / RFU, RASA1 / Fold change vs veh, RASA1 / RFU, RB1 / Fold change vs veh, RB1 / RFU, PPFIA1 / Fold change vs veh, PPFIA1 / RFU, MAT2A / Fold change vs veh, MAT2A / RFU, CCT5 / Fold change vs veh, CCT5 / RFU, WDR92 / Fold change vs veh, WDR92 / RFU, CUX1 / Fold change vs veh, CUX1 / RFU, TTC7A / Fold change vs veh, TTC7A / RFU, TMEM135 / Fold change vs veh, TMEM135 / RFU, DEPTOR / Fold change vs veh, DEPTOR / RFU, CPM / Fold change vs veh, CPM / RFU, DNAJB6 / Fold change vs veh, DNAJB6 / RFU, CACNA2D3 / Fold change vs veh, CACNA2D3 / RFU, DTX4 / Fold change vs veh, DTX4 / RFU, TFCP2 / Fold change vs veh, TFCP2 / RFU, GMCL1 /// GMCL1P1 / Fold change vs veh, GMCL1 /// GMCL1P1 / RFU, AEBP2 / Fold change vs veh, AEBP2 / RFU, SNHG1 /// SNORD22 /// SNORD25 /// SNORD26 /// SNORD27 /// SNORD28 /// SNORD29 /// SNORD31 / Fold change vs veh, SNHG1 /// SNORD22 /// SNORD25 /// SNORD26 /// SNORD27 /// SNORD28 /// SNORD29 /// SNORD31 / Fold change (Aza/veh), C12orf56 (ProbeSet 11735607_a_at) / Fold change (ACY-1035/veh), C12orf56 (ProbeSet 11735607_a_at) / Fold change (Aza/veh), FGFR1OP (ProbeSet 11751329_s_at) / Fold change (ACY-1035/veh), FGFR1OP (ProbeSet 11751329_s_at) / Fold change (Aza/veh), VPS36 (ProbeSet 11739960_a_at) / Fold change (ACY-1035/veh), VPS36 (ProbeSet 11739960_a_at) / RFU SYPL1 (11715823_x_at) / Fold change /veh SYPL1 (11715823_x_at) / RFU IGFBP7 (11715501_s_at) / Fold change /veh IGFBP7 (11715501_s_at) / RFU REEP3 (11722064_at) / Fold change /veh REEP3 (11722064_at) / RFU IGLL1 (11728026_x_at) / Fold change /veh IGLL1 (11728026_x_at): dose or concentration left out as unconfirmed
Conditions: MV-4-11 cells, 48 hours

SMILES: Nc1ccc(-c2cccs2)cc1NC(=O)c1ccc2c(c1)cc(C1CC1)n2CCN1CCOCC1 [ACY-1035]
- Fold change /veh C10orf10 (11716521_a_at): 0.91
